The source of these data is patent US20030166528A1, “Antifungal compound” (priority 2000, published 2003).

Where two headings read alike, the source gives them in different places. Non-standard residues stand in square brackets, D forms with d. Residues, ends and D or L forms follow the SMILES beside them. 1Nal = N[C@@H](Cc1cccc2ccccc12)C(=O)O; 2Thi = N[C@@H](Cc1cccs1)C(=O)O; Nva = CCC[C@H](N)C(=O)O

One data set has as its system A. fumigatus. Type of data set: cell-based. As to conditions: on A. fumigatus, with tested concentrations of amphotericin-B and itraconazole. The procedure: (§1) In addition, checkerboard assays were used to evaluate synergy, additivity or antagonism between XMP.676 and fluconazole, amphotericin B or itraconazole. These assays were carried out on both C. albicans and A. fumigatus. Results from these experiments were used to calculate fractional inhibitory concentration (FIC) values. […] At lower concentrations of both compounds, additional synergy may be observed.

Data set [1] deals with C. albicans. The class given is cell-based. As to conditions: on C. albicans, with fluconazole and amphotericin-B. Here is the method: as §1
Data set [2] is classed as in vitro ADME. As to conditions: for half-life: 37° C., 250 μg/mL, read-out: biological half life. Here is the method: XMP.676 was also tested for stability using a bioassay generally according to Example 5 of U.S. Pat. No. 5,858,974, wherein the peptide is incubated with SDB, RPMI, mouse serum or human serum for varying amounts of time and the resulting serum-treated product is tested for retention of antifungal activity against C. albicans SLU-1 in a FACScan assay as follows.
A solution of XMP.676 (0.5 mg/mL) was mixed with medium or fresh mouse serum or fresh human serum at a 1:1 ratio to make a 250 μg/mL solution. The resulting mixture was incubated at 37° C. Small sample volumes were removed from the incubation mixture at specific times and placed at −20° C.
Antifungal activity of the peptide/serum (or peptide/media) samples was tested as follows. Mid-log phase C. albicans were suspended in SDB at a concentration of about 1×10^6 CFU/ml. The suspension was aliquoted in 1 mL portions into polystyrene tubes. The peptide/serum mixture sample were thawed and 50 μL of each sample was aliquoted into each tube and incubated at 37° C. for various times. The cells were then pelleted and resuspended in a solution of 10 μg/mL propidium iodide/PBS and incubated for 5 minutes. Propidium iodide is a fluorescent exclusionary dye that is only taken up by the cell when cell death has occurred. Cells were analyzed for fluorescence on a FACScan instrument using cells treated with 70% ethanol as the control for 100% death, and untreated cells for zero death.

Data set [3] is classed as in vivo, rabbits. Here is the method:
Increasing doses of various […], or via intraperitoneal injection, to determine the maximum dose of peptide that could be administered without causing observable symptoms such as respiratory distress and loss of righting reflex. […] […] When administered via rapid intravenous injection, doses of XMP.676 higher than 2.5 mg/kg were not well tolerated, but slow injection increased the well tolerated dose two-fold to 5.0 mg/kg. When administered intraperitoneally, XMP.676 was well tolerated at doses up to and including 15.0 mg/kg. […] XMP.676 was also tested in cytarabine-treated conscious rabbits (wherein 30 mg/kg cytarabine was administered intravenously daily for 5 days prior to administration of XMP.676).

The conditions of data set [4]: in vivo.
The next data set relates to Aspergillus fumigatus. Type of data set: in vivo, mice. The procedure: XMP.676 was additionally tested in cyclosporin-A (CSA) immunosuppressed mice systemically infected with about 5×10^5 CFU Aspergillus fumigatus. Specifically, mice were immunosuppressed by IP injection of 50 mg/kg CSA at day-1. CSA injections continued daily for 9 consecutive days (to day 8). On Day 0, animals received the second CSA injection immediately followed by an inoculum of A. fumigatus in a 0.25 mL volume via a lateral tail injection. Treatment with XMP.676 began one hour following fungal challenge at doses of 0.3, 1.0, 3.0 or 10.0 mg/kg IP, was repeated one day later, and then continued q.o.d. for a total of 7 treatments (Days 0, 1, 3, 5, 7, 9, 11). One group was treated with saline as a control, and another group received 1.0 mg/kg amphotericin B for comparison. Mortality was recorded for 28 days. […] XMP.676 is also be tested in the absence of immunosuppression with CSA.

The test system of data set [5] is C. albicans SLU-1. Type of data set: in vivo, DBA/2 mice. Here is the method: XMP.676 was tested for in vivo antifungal activity in mice with systemic C. albicans infection, as measured by effect on mortality, generally according to Example 4 of U.S. Pat. No. 5,858,974.
Briefly described, DBA/2 mice were inoculated with an IV injection of approximately 7×10^4 CFU C. albicans SLU-1. Desired doses of XMP.676 were prepared from a stock solution of 1 mg/mL XMP.676 in a 0.9% saline solution. Treatment with XMP.676, other antifungal agents or saline via either IV or IP routes was initiated immediately after fungal challenge. Subsequent treatments were administered q.o.d. through day 15. Mortality was recorded daily for 28 days.

The next data set can be described thus: in vivo. As to conditions: DBA/2, mouse, iv, well tolerated dose.
For data set [6], the system named is C. albicans SLU-1. Type of data set: cell-based. As to conditions: radial diffusion assay. Here is the method:
XMP.676 was tested for in vitro antifungal activity in radial diffusion assays against C. albicans SLU-1 generally according to Examples 2 and 3 of U.S. Pat. No. 5,858,974.

Data set [7] relates to C. albicans. Type of data set: in vivo, mice. As to conditions: 5 mg/kg twice daily for 14 days, intraperitoneal; preliminary test.

For orientation: half-life means the time in which the quantity being followed falls by half. In general, MTD refers to the highest dose tested that stayed within the study's limit of toxicity. Regarding `CCC[C@H](NC(=O)[C@H](CCC(N)=O)NC(=O)[C@@H](NC(=O)[C@H](CCC)NC(=O)[C@H](Cc1cccc2ccccc12)NC(=O)[C@H](N)CCCCN)[C@@H](C)CC)C(=O)N[C@H](C(=O)N[C@@H](Cc1cccs1)C(=O)N[C@H](CCCCN)C(=O)N[C@H](CCCCN)C(N)=O)C(C)C` [XMP.676, LysD-(Naph-1-Ala)-Norvaline-Ile-Gln-Norvaline-Val-(Thienyl-Ala)-LysD-LysD] (H-[dK][1Nal][Nva]IQ[Nva]V[2Thi][dK][dK]-NH2), the entries for the “synergy, additivity or antagonism (FIC)” value with A. fumigatus and in the data set on C. albicans [1] were “additivity” and “strong additivity or synergy”, respectively. The “stability in microbial media” value in data set [2] (all types of microbial media examined (SDB, RPMI)) is listed as “excellent stability”. Moreover, the half-life in data set [2] (human serum) and in data set [2] (mouse serum) was above 3 h in each case. In addition, the adverse events entry in [3] (2.5 mg/kg IV, 30 minute single infusion) was “did not result in any significant adverse events”; in data set [3] (doses higher than 2.5 mg/kg IV infusion), “resulted in mortality”. In [4] (DBA/2, mouse, iv), this molecule returned a well tolerated dose of 5.0 mg/kg. The same molecule gave a well tolerated doses in data set [4] (mouse, ip) of at most 15.0 mg/kg. In addition, the reduction in mortality entry in the data set on Aspergillus fumigatus (1.0 mg/kg IP q.o.d., p=0.0003, 28 days) is on record as “highly statistically significant reduction in mortality”; with Aspergillus fumigatus (3.0 mg/kg IP), “no reduction in mortality”; in the data set on Aspergillus fumigatus (10.0 mg/kg IP) it was “no reduction in mortality”; in the data set with C. albicans SLU-1 [5] (0.5 mg/kg IV q.o.d., p<0.001, 28 days), “statistically significant reduction in mortality”; with C. albicans SLU-1 [5] (1.0 mg/kg IV q.o.d., p=0.019, 28 days), “reduction in mortality”; in the data set on C. albicans SLU-1 [5] (2.5 mg/kg IV q.o.d., all five experiments (p=0.005, p<0.001, p<0.001, p=0.002, p=0.015)), “statistically significant reduction in mortality”. Moreover, in the data set on C. albicans SLU-1 [5] (5 mg/kg IP q.o.d. or q.d., three of four experiments (p=0.0001, p=0.012, p=0.018)), the reduction in mortality entry is given as “statistically significant reduction in mortality”. Besides, the “protection, slow injection relative to rapid bolus injection” value in the data set on C. albicans SLU-1 [5] (IV, slow (approximately 20 seconds) vs rapid (less than about 5 seconds), 2.5 mg/kg in FIG. 2) was “greater delay in onset of death and greater protection”. For the same molecule, the “benefit of intravenous treatment q.o.d. versus q.d. or b.i.d.” value in the data set with C. albicans SLU-1 [5] (intravenous) is “greater benefit”. In addition, the MTD in the data set “in vivo” was found to be 2.5 mg/kg. In the data set on C. albicans SLU-1 [6], the “lowest minimum inhibitory concentration (MIC) observed” value is 171 pmol. Besides, in the data set with C. albicans [7], the “reduction in mortality compared to saline control” value is recorded as “did not provide a reduction in mortality”.
